In US5166357A (priority 1988, dated 1992):
Like-named read-outs stand apart in the source and are kept apart here.

Columns and labels:
[1] = target: muscarinic receptors; assay type: binding, Hooded Lister rats; settings: 0.27nM 3H-QNB, rat cerebral cortex, tris pH 7.7, 37° C., 30 min
[2] = target: muscarinic receptors; test: Radio ligand binding: displacement of muscarinic agonist 3H-Oxotremorine-M (3H-OXO-M) from rat cerebral cortex membranes; set-up: species or system Hooded Lister rats; settings: 2nM 3H-OXO-M, 2mM magnesium chloride, tris pH 7.7, 37° C., 30 min

## COCc1ncc(C23CCCN(CC2)C3)o1 (racemic) [Example E11, (±)5-(2-Methoxymethyl-1,3-oxazol-5-yl)-1-azabicyclo [3.2.1]octane]
[1]
  IC50: 2600 nM
[2]
  IC50: 220 nM

## Nc1ncc(C23CCCN(CC2)C3)o1 (racemic) [Example E3, (±) 5-(2-Amino-1,3-oxazol-5-yl)-1-azabicyclo[3.2.1]-octane]
[1]
  IC50: 3500 nM
[2]
  IC50: 4 nM

## COC(=O)c1ncc(C23CCCN(CC2)C3)o1 (racemic) [Example E9, (±)5-(2-Methoxycarbonyl-1,3-oxazol-5-yl)-1-azabicyclo [3.2.1]octane]
[1]
  IC50: 30500 nM
[2]
  IC50: 2000 nM

## N#Cc1ncc(C23CCCN(CC2)C3)o1 (racemic) [Example E13, (±)5-(2-Cyano-1,3-oxazol-5-yl)-1-azabicyclo[3.2.1]octane]
[1]
  IC50: 2800 nM
[2]
  IC50: 380 nM

## Nc1ncc(C2CN3CCC2CC3)o1 (racemic) [Example E2, (±) 3-(2-Amino-1,3-oxazol-5-yl)-1-azabicyclo[2.2.2]octane]
[1]
  IC50: 17000 nM
[2]
  IC50: 440 nM

## Nc1nc(C23CCCN(CC2)C3)co1 (racemic) [Example E1, (±) 5-(2-Amino-1,3-oxazol-4-yl)-1-azabicyclo[3.2.1]octane]
[1]
  IC50: 42000 nM
[2]
  IC50: 250 nM

## Nc1ncc(C2CN3CCC2C3)o1 (racemic) [Example E6, (±) exo and endo 3-(2-Amino-1,3-oxazol-5-yl)-1-azabicyclo[[2.2.1]heptane]
[1]
  IC50: 10300 nM
[2]
  IC50: 200 nM

## Nc1ncc(C23CCN(CC2)C3)o1 [Example E5]
[1]
  IC50: 11000 nM
[2]
  IC50: 18 nM

## COCc1ncc(C23CCN(CC2)C3)o1 [Example E17, 4-(2-Methoxymethyl-1,3-oxazol-5-yl)-1-azabicyclo[2.2.1]-heptane]
[1]
  IC50: 60000 nM
[2]
  IC50: 1050 nM

## Nc1nc(C23CCCN(CC2)C3)cs1 (racemic) [Example E4, (±5-(2-Amino-1,3-thiazol-4-yl)-1-azabicyclo[3.2.1]octane]
[1]
  IC50: 5600 nM
[2]
  IC50: 280 nM

## FCc1ncc(C23CCCN(CC2)C3)o1 (racemic) [Example E12, (±)5-(2-Fluoromethyl-1,3-oxazol-5-yl)-1-azabicyclo [3.2.1]octane]
[1]
  IC50: 440 nM
[2]
  IC50: 5 nM

## OCc1ncc(C23CCCN(CC2)C3)o1 (racemic) [Example E10, (±)5-(2-Hydroxymethyl-1,3-oxazol-5-yl)-1-azabicyclo [3.2.1]octane]
[1]
  IC50: 7000 nM
[2]
  IC50: 206 nM

## Nc1ncc([C@H]2C[C@@H]3CCN(C3)C2)o1 (relative stereo) [Example E16, (±) exo 3-(2-Amino-1,3-oxazol-5-yl)-1-azabicyclo[3.2.1]octane]
[1]
  IC50: 42000 nM
[2]
  IC50: 560 nM
